Data: patent publication US20240376057A1, “2,4-DIOXO-1,2,3,4-TETRAHYDROPYRIMIDINE DERIVATIVES AND THEIR USE IN THE TREATMENT OF TUMORS” (ISTITUTO PASTEUR ITALIA, priority 2021, published 2024)
pIC50: −log10 of the molar value.

What was measured:
LDHA enzyme = experiment: LDHA enzymatic activity assay: rate of NADH consumption after pyruvate addition, spectrophotometry at 340 nm, in Med1-MB cell supernatant; format: biochemical, mouse; set-up: key to LDH Inhibition (relative inhibitory activity): *** strong; ** middle; * weak; details: dose of 100 μM
Procedure: To evaluate whether the observed anti-proliferative effect of IPI/01.LF and derivatives was a specific consequence of the inhibitory activity on the LDHA enzyme, the inventor performed enzymatic activity assays measuring the rate of NADH consumption following the addition of pyruvate by spectrophotometry at […], as previously described [Miskimins W K, Ahn H J, Kim J Y, Ryu S, Jung Y S, Choi J Y. Synergistic anti-cancer effect of phenformin and oxamate. PLoS One. 2014; 9(1):e85576.].
1×10^5 Med1-MB cells were harvested, suspended in 0.1M KH2PO4 (pH 7.2), 2 mM EDTA and 1 mM dithiothreitol (DTT), sonicated in 300 μL assay buffer (50 mmol/L potassium phosphate, pH 7.4), and centrifuged at 10,000 g for 10 minutes at 4° C. The supernatant was added to 50 mM potassium phosphate (pH 7.4), 2 mM pyruvate, and 20 µM NADH. Absorbance was measured over 10 minutes at 340 nm using a spectrophotometer.

Med1-MB cells = experiment: Med1-MB tumor cell proliferation, Trypan Blue exclusion count; format: cell-based, mouse; set-up: key to Growth Inhibition (relative inhibitory activity): *** strong; ** middle; * weak; details: for Growth Inhibition (relative inhibitory activity): 72 h treatment
Procedure: Med1-MB cells (a mouse medulloblastoma cell line kindly provided by Dr Yoon-Jae Cho, Stanford, CA USA and disclosed in Hayden Gephart et al. Journal of Neuro-Oncology (2013) volume 115, pages 161-168) were maintained in DMEM supplemented with 10% FBS and 100 units of penicillin/streptomycin.
Med1-MB cells were cultured in Dulbecco's modified Eagle medium (DMEM) supplemented with 10% FBS, 1 mM penicillin-streptomycin and 1 mM glutamine in a humidified incubator at 37° C. and 5% CO2. […] After 72 hours, cells were trypsinized and counted by trypan blue exclusion method.
To evaluate the effect on tumor growth of compound IPI/01.LF, and derivatives, 1×10^4 Med1-MB cells were seeded in 12-well plate and incubated overnight at 37° C. in a humidified incubator. After 24 h, cells were treated with increasing concentrations of compounds for 72 h. At the end of the experiment, cell proliferation was assayed by Trypan Blue exclusion method. IC50 values were determined by generating a dose-response curves by non-linear regression. Data are expressed as the mean±SD of three independent experiments, each performed in triplicate.

Panc1 cells = experiment: Panc1 pancreatic tumor cell proliferation, Trypan Blue exclusion; format: cell-based, human
From the text: The inventor tested compound #1-IPI/01.LF on the proliferation of human pancreatic ductal adenocarcinoma (PDAC) Panc1 cells (American Tissue Cell Culture (ATCC, Manassas, VA, USA); product code: ATCC® CRL-1469™) a human tumor cell line showing a high glycolytic rate (Liu L, Gong L, Zhang Y, Li N. Glycolysis in Panc-1 human pancreatic cancer cells is inhibited by everolimus Experimental and therapeutic medicine (2013) 5: 338-342).
PANC-1 cells were maintained in DMEM supplemented with 10% FBS and 100 units of penicillin/streptomycin. After 72 h, cell proliferation was assayed by Trypan Blue exclusion method. IC50 value was determined by generating a dose-response curves by non-linear regression. Data are expressed as the mean±SD of three independent experiments, each performed in triplicate.

Panc1 tumor xenograft = experiment: Panc1 luciferase xenograft in immunodeficient nude (nu/nu) mice: caliper tumor volume, luminescence, body weight; format: in vivo, mouse; details: for tumor growth in treated mice: 20 mg/Kg in corn oil, intraperitoneally every two days, vs vehicle
Procedure: To evaluate the in vivo therapeutic effects of compound IPI/01.LF studies on immunodeficient nude (nu/nu) mouse models xenografted with the human pancreatic tumor cells Panc1 were performed.
Panc1 cells were stably transduced with 5 MOI of a lentivirus expressing the luciferase gene (pLenti CMV Puro LUC (w168-1)). The lentiviral vector was purchased from Addgene, Watertown, MA 02472 USA (plasmid #17477); Campeau E, et al A versatile viral system for expression and depletion of proteins in mammalian cells PLoS One (2009) 4(8):e6529.
Stably transduced Panc1 cells were subcutaneously implanted in immunocompromised Balb/C nude athymic mice. When the tumors reached the volume of 200 mm^3, mice were treated with either 20 mg/kg of compound IPI/01.LF dissolved in corn oil or with corn oil (vehicle) alone and injected intraperitoneally every two days. Tumor growth was monitored with a caliper every other day. Data are expressed as the mean±SD of three independent experiments, each performed in triplicate.
Since the grafted Panc1 tumor cells express the ectopic luciferase reporter gene, tumor luminescence was used to monitor the tumor growth. Luminescence was measured using IVIS Lumina III In Vivo Imaging System (PerkinElmer).
Mice were intraperitoneally injected with luciferin (RediJect D-Luciferin Bioluminescent Substrate, PerkinElmer) and analyzed by photon emission (bioluminescence).
L of luciferin (15 mg/mL stock)/gram of mouse body weight were injected in the lower left abdominal quadrant of xenografted Balb/C mice with a 25 gauge needle. After 10 minutes, animals were anesthetized with a mixture of oxygen gas and vaporized isoflurane. Once the animals were fully anesthetized, they were positioned within the animal imaging cassette for image acquisition. Data were analyzed utilizing the LivingImage software. Image acquisition was performed at the beginning (T=0) and at the end (T=17) of the experiment and body weights (g) of mice at time of sacrifice were determined.

## O=C(Nc1ccccc1F)c1c[nH]c(=O)n(Cc2ccc(F)cc2)c1=O [#3, 2,4-Dioxo-3-(4-fluorobenzyl)-N-(2-fluorophenyl)-1,2,3,4-tetrahydropyrimidine-5-carboxamide]
LDHA enzyme
  LDH Inhibition (relative inhibitory activity): **
Med1-MB cells
  Growth Inhibition (relative inhibitory activity): **

## O=C(Nc1cccc(Cl)c1)c1c[nH]c(=O)n(Cc2ccccc2)c1=O [#2, 2,4-Dioxo-3-benzyl-N-(3-chlorophenyl)-1,2,3,4-tetrahydropyrimidine-5-carboxamide]
LDHA enzyme
  LDH Inhibition (relative inhibitory activity): *
Med1-MB cells
  Growth Inhibition (relative inhibitory activity): *

## NC(=O)c1ccc(NC(=O)c2c[nH]c(=O)n(Cc3ccccc3)c2=O)cc1 [#6, 2,4-Dioxo-3-benzyl-N-(4-carboxamidophenyl)-1,2,3,4-tetrahydropyrimidine-5-carboxamide]
LDHA enzyme
  LDH Inhibition (relative inhibitory activity): ***
Med1-MB cells
  Growth Inhibition (relative inhibitory activity): ***

## COc1ccc(Cn2c(=O)[nH]cc(C(=O)Nc3ccccc3Cl)c2=O)cc1 [#7, 2,4-Dioxo-3-(4-methoxybenzyl)-N-(2-chlorophenyl)-1,2,3,4-tetrahydropyrimidine-5-carboxamide]
LDHA enzyme
  LDH Inhibition (relative inhibitory activity): ***
Med1-MB cells
  Growth Inhibition (relative inhibitory activity): ***

## NC(=O)C(=O)O [oxamate, reference compound]
Med1-MB cells; 72 h
  concentration lowering in vitro proliferation: > 20 mM

## O=C(Nc1ccccc1Cl)c1c[nH]c(=O)n(Cc2ccccc2)c1=O [#4, 2,4-Dioxo-3-benzyl-N-(2-chlorophenyl)-1,2,3,4-tetrahydropyrimidine-5-carboxamide]
LDHA enzyme
  LDH Inhibition (relative inhibitory activity): ***
Med1-MB cells
  Growth Inhibition (relative inhibitory activity): ***

## O=C(Nc1ccccc1)c1c[nH]c(=O)n(Cc2ccccc2F)c1=O [#1, 2,4-dioxo-N-phenyl-3-(2-fluorobenzyl)-1,2,3,4-tetrahydropyrimidine-5-carboxamide]
Panc1 cells; Homo sapiens, PANC-1, Panc1 cells, 72 h, non-linear regression
  pIC50: ~4.64
Panc1 cells; Panc1 cells
  IC50 range, cell proliferation: within the micromolar range
Panc1 cells; in vitro, vs oxamate
  concentration times lower than oxamate for comparable ability to reduce tumor growth: > 700 times
LDHA enzyme
  LDH Inhibition (relative inhibitory activity): ***
  inhibitory effect on LDHA enzymatic activity: marked inhibitory effect
Med1-MB cells
  Growth Inhibition (relative inhibitory activity): ***
Med1-MB cells; Mus musculus, 72 h, non-linear regression
  pIC50: ~4.54
Med1-MB cells; vs oxamate
  values times lower than those obtained with oxamate: approximately 700 times
Panc1 tumor xenograft
  tumor growth in treated mice: did not grow at all
Panc1 tumor xenograft; listed as IPI/01.LF
  tumor growth in treated mice: significantly lower
Panc1 tumor xenograft; 20 mg/Kg, T=0 to T=17
  weight of mice: unchanged
Panc1 tumor xenograft; 20 mg/Kg, T=0 vs T=17 days, IVIS Lumina III
  tumor luminescent light signal over time: significant regression over time
Panc1 tumor xenograft; 20 mg/Kg, end of experiment
  tumor mass smaller in treated mice compared to controls at end of experiment: 2.5 fold
Panc1 tumor xenograft; 20 mg/kg, end of treatment
  mean volume of tumors at end of treatment compared to controls: significantly reduced
